Results published in PMC12029982, “The Mechanism of a Novel Mitochondrial-Targeted Icaritin Derivative in Regulating Apoptosis of BEL-7402 Cells Based on the SIRT3 and CypD-Mediated ROS/p38 MAPK Signaling Pathway” (Molecules, 2025).
Entries after “also recorded” stand apart in the source; their conditions may differ.

Key:
Type in all cases: cell-based, human
HEK293 = test: MTT assay, cytotoxicity to normal cell line
Procedure: Human cancer cell lines BEL-7402, A549, MCF-7, PC-3M, and normal renal cell line HEK293 were bought from the BeNa Culture Collection (Beijing, China). BEL7402, A549, and PC-3M were cultured in RPMI 1640 medium (Gibco, Carlsbad, CA, USA). MCF-7 and HEK293 were cultured in the DMEM medium (Gibco, CA, USA). The medium was supplemented with 10% fetal bovine serum (FBS) (CLARK, San Diego, CA, USA), 100 U/mL penicillin, and 0.1 mg/mL streptomycin (Beyotime, Nanjing, China). The cells were incubated in 5% CO2 at 37 °C.
The MTT assay was employed to assess the inhibitory effect of each compound on cell growth. A549, PC-3M, MCF-7, BEL-7402, and HEK293 cells in the logarithmic growth phase were seeded in 96-well culture plates at an inoculum density of 5 × 10^4 cells/mL. After overnight incubation at 37 °C in a 5% CO2 atmosphere, the cells fully adhered to the surface. Different concentrations of sample solutions (0, 3.125, 6.25, 12.5, 25, 50, 100 μmol/L) were added (100 μL) to treat the cells. After 48 h of drug treatment, 10 μL of a 5 mg/mL MTT solution was added to each well and incubated for 4 h at 37 °C. The supernatant was then discarded, and 150 μL of DMSO was added to dissolve the formazan. The mixture was shaken at room temperature for 15 min, and the absorbance (D) value was measured at 490 nm using a Microplate Reader (HBS-ScanY, Nanjing, China). The drug IC50 values were calculated using GraphPad Prism (v10.0). Each cell viability experiment was performed in triplicate.

[1] = system: mitochondria of BEL-7402 cells; test: HPLC analysis of accumulation in mitochondria; conditions: 10 μM
Procedure: BEL-7402 cells were cultured in 100 mm Petri dishes. When the cell density reached 90%, the cells were treated with different drugs, all at the same concentration (ICT and Mito-ICT-4 were both set at 10 μM). After 9 h of drug treatment, intracellular mitochondria were isolated from the different drug-treated groups using a mitochondrial isolation kit (Beyotime, Nanjing, China). The mitochondria were resuspended in 200 μL of phosphate-buffered saline (PBS), and an equal volume of anhydrous dichloromethane was added. Ultrasonic extraction was performed three times, and the lower organic phase was collected. Dichloromethane was removed, and the sample was resuspended in 200 μL of 0.1% formic acid in methanol. A 20 μL sample was analyzed and quantified by HPLC. HPLC analysis was conducted using an ALLTECH 26-201 (Jerome, CA, USA) with a flow rate of 1 mL/min. The stationary phase was Agilent ZORBAX SB-C18 (250 mm × 4.6 mm, 5 μm, Santa Clara, CA, USA), and the mobile phase consisted of methanol-0.1% formic acid in water (80:20).

BEL-7402 cells [2] = test: Annexin V-FITC/PI flow cytometry apoptosis assay
Procedure: BEL-7402 cells in the logarithmic growth phase were prepared into a cell suspension at a concentration of 2.5 × 10^5 cells/mL and seeded into 6-well culture plates with 2 mL per well. After overnight incubation, different concentrations of Mito-ICT-4 (0.625, 1.25, 2.5 μmol/L) were added to the cells, and a control group was included. After 48 h of culture, the supernatant was transferred to a centrifuge tube. The cells were then digested with pancreatin (without EDTA) (Beyotime, Nanjing, China) at room temperature and centrifuged at 4 °C for 5 min (10,000 rpm). The supernatant was discarded. Then, 300 μL of 1× buffer was added to each group, and the mixture was well mixed. The mixture was then incubated with 5 μL of Annexin V-FITC (Solarbio, Beijing, China) solution at room temperature for 5 min, protected from light, followed by the addition of 5 μL of PI solution. Apoptosis was detected using flow cytometry (BD Biosciences, Franklin Lakes, NJ, USA).

BEL-7402 cells [3] = test: DAPI staining, apoptosis; conditions: 0.625, 1.25, 2.5 μmol/L, 48 h
Procedure: BEL-7402 cells in the logarithmic growth phase were seeded in 12-well plates at a density of 1 × 10^5 cells/well. After overnight incubation, the cells were treated with different concentrations of Mito-ICT-4 (0.625, 1.25, and 2.5 μmol/L), and a control group was included. After 48 h of incubation, the cells were fixed with 4% histocyte fixative (Solarbio, Beijing, China) at room temperature for 15 min. After fixation, 500 μL of DAPI staining solution (Solarbio, Beijing, China) was added to each well and incubated at 37 °C for 20 min. The cells were then observed under an inverted fluorescence microscope (EVOS M5000, Waltham, MA, USA).

BEL-7402 cells [4] = test: Calcein AM/CoCl2 probe, MPTP opening; conditions: increasing drug concentration, 24 h
Procedure: Drug grouping and administration were performed as described in Section 2.5. After 24 h of incubation, 500 μL of staining solution (containing 2 μM Calcein AM and 5 mM CoCl2) (Aladdin, Shanghai, China) was added to each well. The cells were stained for 30 min at 37 °C and protected from light. After staining, the solution was discarded, and the cells were washed twice with PBS. The cells were then observed under an inverted fluorescence microscope.

BEL-7402 cells [5] = test: DCFH-DA probe, intracellular ROS by flow cytometry; conditions: 48-h treatment, dose-dependent
Procedure: Drug grouping and administration were performed as described in Section 2.6. After 48 h of incubation, 500 μL of DCFH-DA probe (Beyotime, Nanjing, China) was added to each well. The cells were stained for 30 min at 37 °C and protected from light. The dye was then discarded, and the cells were washed three times with a serum-free medium. Samples were analyzed using flow cytometry with an excitation wavelength of 480 nm and an emission wavelength of 525 nm.

COc1ccc(-c2oc3c(CC=C(C)C)c(OC(=O)CCCCCCCCCC[P+](c4ccccc4)(c4ccccc4)c4ccccc4)cc(O)c3c(=O)c2O)cc1 [Mito-ICT-4]
IC50 (HEK293; Homo sapiens, HEK293, MTT, 48 h drug exposure, mean ± SD, normal cell line): 67.1 ± 2.09 µM | reduction compared to ICT (cytotoxicity in HEK293 cells) (HEK293; from IC50 values in HEK293): 55.4% | fate after entering the mitochondria [1]: hydrolysis to ICT; also recorded: hydrolyzed to ICT | accumulation in mitochondria relative to ICT ([1]; 9 h): approximately 2.5 times | cells undergoing early apoptosis (BEL-7402 cells [2]; BEL-7402 cells treated with Mito-ICT-4): 27.39% | apoptosis-inducing ability relative to ICT (BEL-7402 cells [2]; BEL-7402 cells, sentence cites [24]): approximately 29.8 times | total apoptosis rate (BEL-7402 cells [2]; high-dose group (2.5 μmol/L), 48 h): 27.39% | nuclear morphology, DAPI staining (BEL-7402 cells [3]): nuclei exhibited crumpling and cleavage | morphology with Calcein AM/CoCl2 (MPTP opening) (BEL-7402 cells [4]): transitioned from oval to round and, ultimately, to an irregular shape | intracellular ROS levels (BEL-7402 cells [5]): significantly elevated
